Results reported in patent publication US20260165323A1, “USE OF STROBILURIN TYPE COMPOUNDS FOR COMBATING PHYTOPATHOGENIC FUNGI CONTAINING AN AMINO ACID SUBSTITUTION F129L IN THE MITOCHONDRIAL CYTOCHROME B PROTEIN CONFERRING RESISTANCE TO QO […]” (priority 2022, published 2026).

Legend:
Type in all cases: in vivo
Puccinia recondita [1] = experiment: Use Example 4: preventative control of brown rust on wheat (PUCCRT P7); conditions: inoculated seven days after spraying, % diseased leaf area
Method in brief: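 Preventative test: Puccinia recondita spores dusted onto wheat seedlings seven days after spraying their first two leaves to run-off with the formulated compound. After 24 h humid dark incubation at 20–24 °C and 9–11 days of greenhouse growth at 65–70% RH, infection rated visually as % diseased leaf area.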

[2] = system: Phakopsora pachyrhizi containing the amino acid substitution F129L in the mitochondrial cytochrome b protein; experiment: Use Example 2: protective control of soybean rust on soybeans (PHAKPA P6); conditions: inoculated six days after spraying, % diseased leaf area
Method in brief: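 Disease was rated visually as % diseased leaf area up to 14 days after inoculation (23–27°C, 60–80% RH). Inoculum was P. pachyrhizi carrying cytochrome b F129L, followed by 24 h in a humid chamber (~95% RH). Inoculation came six days after protective spraying of seedlings with compound in acetone/DMSO–Wettol–water.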

Puccinia recondita [3] = experiment: Use Example 3: curative control of brown rust on wheat (PUCCRT K4); conditions: % diseased leaf area
Method: The compound was dissolved in a mixture of acetone and/or dimethylsulfoxide and the wetting agent/emulsifier Wettol, which is based on ethoxylated alkylphenoles, in a ratio (volume) solvent-emulsifier of 99 to 1 to give a total volume of 5 ml. Subsequently, water was added to total volume of 100 ml. This stock solution was then diluted with the described solvent-emulsifier-water mixture to the final concentration given in the tables below.
Use Example 3. Curative Control of Brown Rust on Wheat Caused by Puccinia recondita (PUCCRT K4)
The first two developed leaves of potted wheat seedling were dusted with spores of Puccinia recondita. To ensure the success the artificial inoculation, the plants were transferred to a humid chamber without light and a relative humidity of 95 to 99% and 20 to 24° C. for 24 h. The next 3 days the plants were cultivated in a greenhouse chamber at 20 to 24° C. and a relative humidity between 65 and 70%. Then the plants were sprayed to run-off with previously described spray solution, containing the concentration of active ingredient or their mixture as described below. The plants were allowed to air-dry. Then the trial plants were cultivated for 5 to 7 days in a greenhouse chamber at 20 to 24° C. and a relative humidity between 65 and 70%. The extent of fungal attack on the leaves was visually assessed as % diseased leaf area, the disease level of untreated controls was usually between 80 and 100%.

[4] = system: Phakopsora pachyrhizi containing the amino acid substitution F129L in the mitochondrial cytochrome b protein; experiment: Use Example 1: protective control of soybean rust on soybeans (PHAKPA P2); conditions: inoculated 2 days after spraying, % diseased leaf area
Method in brief: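 Protective test: plants were inoculated with the F129L cytochrome b rust strain 2 days after spraying to run-off, then held 24 h humid (~95% RH, 20-24° C) and up to 14 days at 23-27° C, 60-80% RH. Readout was visually assessed percent diseased leaf area.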

SMILES	% PUCCRT Disease level P7 at 4 ppm (Puccinia recondita [1]) [%]	% PUCCRT Disease level P7 at 16 ppm (Puccinia recondita [1]) [%]	% PHAKPA (F129L) Disease level P6 at 4 ppm [2] [%]	% PHAKPA (F129L) Disease level P6 at 16 ppm [2] [%]	% PUCCRT Disease level K4 at 4 ppm (Puccinia recondita [3]) [%]	% PUCCRT Disease level K4 at 16 ppm (Puccinia recondita [3]) [%]	% PHAKPA (F129L) Disease level P2 at 4 ppm [4] [%]	% PHAKPA (F129L) Disease level P2 at 16 ppm [4] [%]
CCOC/C(=N\OCc1c(Cl)cccc1/C(=N\OC)C(=O)NC)c1ccccc1F [compound 22]	53	28	40	4	80	63	15	4
CNC(=O)/C(=N/OC)c1cccc(Cl)c1CO/N=C(\COC)c1ccc(F)cc1F [compound 84]	35	5	2	0	58	9	5	0
CNC(=O)/C(=N/OC)c1cccc(Cl)c1CO/N=C(\COC)c1ccc(Cl)c(Cl)c1 [compound 69]	7	3	15	1	33	3	43	7
CO/C=C(/C(=O)OC)c1cccc(Cl)c1CO/N=C(\COC)c1ccc(F)c(F)c1 [compound 92]	3	3	12	0	6	0	0	0
COC/C(=N\OCc1c(Cl)cccc1/C(=N\OC)C(=O)OC)c1ccc(F)cc1F [compound 62]	55	1	6	0	37	2	5	0
CNC(=O)/C(=N/OC)c1cccc(Cl)c1CO/N=C(\COC)c1cccc(OC)c1 [compound 119]	13	1	36	5	42	2	32	0
CO/C=C(/C(=O)OC)c1cccc(Cl)c1CO/N=C(\COC)c1cccc(Cl)c1F [compound 76]	35	3	0	0	41	2	10	1
CO/C=C(/C(=O)OC)c1cccc(Cl)c1CO/N=C(\COC)c1cc(F)c(F)c(F)c1 [compound 67]	4	3	14	0	36	3	10	0
CO/C=C(/C(=O)OC)c1cccc(Cl)c1CO/N=C(\COC)c1ccc(Cl)c(Cl)c1 [compound 71]	4	3	28	7	34	3	31	4
CO/C=C(/C(=O)OC)c1cccc(Cl)c1CO/N=C(\COC)c1ccc(Cl)cc1F [compound 106]	19	2	8	1	28	4	14	1
CO/C=C(/C(=O)OC)c1cccc(Cl)c1CO/N=C(/C#Cc1ccc(F)cc1)COC [compound 7, Methyl (E)-2-[3-chloro-2-[[(Z)-[3-(4-fluorophenyl)-1-(methoxymethyl)prop-2-ynylidene]amino]oxymethyl]phenyl]-3-methoxy-prop-2-enoate]	35	4	11	0	70	50	2	0
CNC(=O)/C(=N/OC)c1cccc(Cl)c1CO/N=C(\COC)c1cc(Cl)ccc1F [compound 107]	41	7	19	3	80	9	29	3
CNC(=O)/C(=N/OC)c1cccc(Cl)c1CO/N=C(\COC)c1ccc(F)cc1 [compound 2, (2E)-2-[3-chloro-2-[[(Z)-[1-(4-fluorophenyl)-2-methoxyethylidene]amino]oxymethyl]phenyl]-2-methoxyimino-N-methyl-acetamide]	15	5	0	1	63	4	16	0
CCOC/C(=N\OCc1c(Cl)cccc1/C(=N\OC)C(=O)NC)c1cccc(F)c1 [compound 42]	62	12	32	4	70	42	11	0
CNC(=O)/C(=N/OC)c1cccc(Cl)c1CO/N=C(\COC)c1ccccc1F [compound 21]	33	6	16	1	63	28	7	0
COC/C(=N\OCc1c(Cl)cccc1/C(=N\OC)C(=O)OC)c1cccc(F)c1 [compound 25]	35	5	90	58	83	78	82	23
CO/C=C(/C(=O)OC)c1cccc(Cl)c1CO/N=C(\COC)c1ccccc1F [compound 13, Methyl-(E)-2-[3-chloro-2-[[(Z)-[1-(2-fluorophenyl)-2-methoxy-ethylidene]amino]oxymethyl]phenyl]-3-methoxy-prop-2-enoate]	67	18	4	0	67	4	5	0
CO/C=C(/C(=O)OC)c1cccc(Cl)c1CO/N=C(\COC)c1c(F)ccc(F)c1F [compound 113]	70	10	10	1	77	13	1	0
